Test results as given in patent US8536354B2, “Steroidal ligands and their use in gene switch modulation” (Intrexon Corporation, priority 2008, dated 2013).
Like-named read-outs stand apart in the source and are kept apart here.

Assays:
[1] = target: T1, AmaEcR (GAL4-EcR DEF with VP16-RXR-USP chimera) (Amblyomma americanum, UniProt O44338); experiment: Two-hybrid gene switch assay, luciferase reporter, AmaEcR, mouse NIH3T3 cells
T1 sequence (O44338 255-570): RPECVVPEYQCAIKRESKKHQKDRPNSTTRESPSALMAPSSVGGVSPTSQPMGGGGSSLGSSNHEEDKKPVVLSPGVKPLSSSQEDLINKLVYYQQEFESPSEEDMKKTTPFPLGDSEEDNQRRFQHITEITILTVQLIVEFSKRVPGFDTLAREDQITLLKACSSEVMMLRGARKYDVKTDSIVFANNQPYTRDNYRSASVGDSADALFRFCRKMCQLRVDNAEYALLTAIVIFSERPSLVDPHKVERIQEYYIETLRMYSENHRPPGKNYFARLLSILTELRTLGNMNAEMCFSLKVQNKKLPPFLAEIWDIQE
T1 sequence (P28702 1-533 partner): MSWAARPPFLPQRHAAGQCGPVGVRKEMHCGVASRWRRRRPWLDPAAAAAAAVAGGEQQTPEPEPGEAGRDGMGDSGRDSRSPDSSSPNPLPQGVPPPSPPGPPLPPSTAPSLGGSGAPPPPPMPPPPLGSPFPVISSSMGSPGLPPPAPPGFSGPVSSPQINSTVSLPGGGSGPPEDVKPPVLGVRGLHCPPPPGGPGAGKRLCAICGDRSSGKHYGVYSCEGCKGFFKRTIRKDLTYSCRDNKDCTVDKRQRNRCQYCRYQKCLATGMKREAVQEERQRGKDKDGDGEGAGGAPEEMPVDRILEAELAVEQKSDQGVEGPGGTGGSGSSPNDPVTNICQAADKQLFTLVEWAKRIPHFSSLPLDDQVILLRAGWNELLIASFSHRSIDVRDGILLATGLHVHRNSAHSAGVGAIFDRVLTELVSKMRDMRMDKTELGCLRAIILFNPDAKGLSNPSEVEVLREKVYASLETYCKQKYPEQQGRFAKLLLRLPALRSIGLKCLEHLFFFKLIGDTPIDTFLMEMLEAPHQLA

[2] = target: wild-type Aedes aegypti EcR (AaEcR; GAL4-EcR DEF with VP16-RXR-USP chimera) (Aedes aegypti, UniProt P49880); experiment: Two-hybrid gene switch assay, luciferase reporter, wild-type AaEcR, mouse NIH3T3 cells; assay type: cell-based
Chain of wild-type Aedes aegypti EcR (AaEcR; GAL4-EcR DEF with VP16-RXR-USP chimera) (P49880 with tags, fused parts or gaps limits assumed, change not shown): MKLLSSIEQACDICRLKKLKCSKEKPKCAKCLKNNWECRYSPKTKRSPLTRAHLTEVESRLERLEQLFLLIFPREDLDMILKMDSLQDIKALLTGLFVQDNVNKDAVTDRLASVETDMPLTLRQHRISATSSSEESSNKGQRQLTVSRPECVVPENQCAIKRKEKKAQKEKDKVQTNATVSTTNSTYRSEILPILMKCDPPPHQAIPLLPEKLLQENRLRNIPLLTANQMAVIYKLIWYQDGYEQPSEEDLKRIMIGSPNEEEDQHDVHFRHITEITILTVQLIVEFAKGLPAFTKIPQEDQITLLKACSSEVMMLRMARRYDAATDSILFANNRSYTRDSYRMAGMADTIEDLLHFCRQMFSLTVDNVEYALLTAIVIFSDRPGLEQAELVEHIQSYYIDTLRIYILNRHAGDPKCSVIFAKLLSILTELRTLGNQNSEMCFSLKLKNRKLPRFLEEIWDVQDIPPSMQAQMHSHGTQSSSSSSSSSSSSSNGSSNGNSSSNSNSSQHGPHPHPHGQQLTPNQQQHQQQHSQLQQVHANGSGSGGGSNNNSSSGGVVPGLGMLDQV

[3] = target: wild-type Drosophila melanogaster EcR (DmEcR; GAL4-EcR DEF with VP16-RXR-USP chimera) (Drosophila melanogaster, UniProt P34021); experiment: Two-hybrid gene switch assay, luciferase reporter, wild-type DmEcR, mouse NIH3T3 cells; assay type: cell-based
Chain of wild-type Drosophila melanogaster EcR (DmEcR; GAL4-EcR DEF with VP16-RXR-USP chimera) (P34021 with tags, fused parts or gaps limits assumed): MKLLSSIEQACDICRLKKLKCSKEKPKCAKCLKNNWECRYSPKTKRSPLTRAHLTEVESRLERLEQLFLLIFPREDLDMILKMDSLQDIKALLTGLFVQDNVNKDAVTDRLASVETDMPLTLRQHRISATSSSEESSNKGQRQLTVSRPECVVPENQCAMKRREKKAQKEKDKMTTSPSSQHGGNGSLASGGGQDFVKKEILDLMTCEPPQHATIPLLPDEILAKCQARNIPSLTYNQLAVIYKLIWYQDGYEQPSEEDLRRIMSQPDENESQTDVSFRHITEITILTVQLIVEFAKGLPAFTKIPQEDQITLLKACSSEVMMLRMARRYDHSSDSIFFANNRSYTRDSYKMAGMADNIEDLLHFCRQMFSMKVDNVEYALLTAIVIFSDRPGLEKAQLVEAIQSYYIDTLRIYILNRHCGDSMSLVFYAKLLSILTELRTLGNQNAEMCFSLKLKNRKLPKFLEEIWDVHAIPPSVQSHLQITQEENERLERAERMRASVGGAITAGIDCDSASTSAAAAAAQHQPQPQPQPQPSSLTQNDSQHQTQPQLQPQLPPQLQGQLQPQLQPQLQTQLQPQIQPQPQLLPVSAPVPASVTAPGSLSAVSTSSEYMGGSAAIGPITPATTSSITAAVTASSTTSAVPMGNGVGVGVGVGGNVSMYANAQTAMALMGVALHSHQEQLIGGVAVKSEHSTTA

[4] = system: NcEcR (GAL4-EcR DEF with VP16-RXR partner); experiment: Two-hybrid gene switch assay, luciferase reporter, NcEcR, mouse NIH3T3 cells
[5] = target: BmEcR (GAL4-EcR DEF with VP16-RXR-USP chimera) (Bombyx mori, UniProt P49881); experiment: Two-hybrid gene switch assay, luciferase reporter, BmEcR, mouse NIH3T3 cells; assay type: cell-based
Chain of BmEcR (GAL4-EcR DEF with VP16-RXR-USP chimera) (P49881 other isoform, or with tags, fused parts or gaps, change not shown): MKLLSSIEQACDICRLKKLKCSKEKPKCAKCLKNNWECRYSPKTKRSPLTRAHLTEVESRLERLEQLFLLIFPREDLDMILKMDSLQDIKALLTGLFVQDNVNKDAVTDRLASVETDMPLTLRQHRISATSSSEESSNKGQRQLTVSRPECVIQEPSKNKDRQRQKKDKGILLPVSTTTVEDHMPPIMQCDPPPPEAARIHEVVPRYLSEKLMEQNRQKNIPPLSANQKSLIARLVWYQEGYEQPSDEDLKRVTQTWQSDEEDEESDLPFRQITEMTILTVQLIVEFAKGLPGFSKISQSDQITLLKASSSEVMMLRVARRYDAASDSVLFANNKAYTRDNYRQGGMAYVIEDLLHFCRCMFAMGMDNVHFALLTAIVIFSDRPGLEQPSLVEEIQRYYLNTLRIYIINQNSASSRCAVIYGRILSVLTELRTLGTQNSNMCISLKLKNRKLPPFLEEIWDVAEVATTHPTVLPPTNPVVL

[6] = EC50, FIG. 14A/14B, GAL4-EcR(DEF) with VP16-RXR-USP chimera
[7] = FIG. 14A/14B, GAL4-EcR(DEF) with VP16-RXR-USP chimera, read-out: EC50
[8] = EC50, FIG. 16, GAL4-EcR (DEF) / VP16-RXR-USP chimera
[9] = EC50, FIG. 13A/13B, BmEcR, GAL4-EcR(DEF) with VP16-RXR-USP chimera

| SMILES | EC50 [1, 6] [µM] | EC50 [2, 7] [µM] | EC50 [3, 6] [µM] | EC50 ([4]; FIG. 14A/14B, GAL4-EcR(DEF)) [µM] | EC50 [5] [µM] | EC50 ([5]; read-out: EC50) [µM] | EC50 [1, 8] [µM] | EC50 [2, 6] [µM] | EC50 [2, 8] [µM] | EC50 [3, 8] [µM] | EC50 ([4]; FIG. 16, GAL4-EcR (DEF)) [µM] | EC50 [5, 9] [µM] | EC50 ([5]; EC50, FIG. 15, BmEcR, GAL4-EcR (DEF) / VP16-RXR-USP chimera) [µM] |
| --- | --- | --- | --- | --- | --- | --- | --- | --- | --- | --- | --- | --- | --- |
| CC(C)(O)CC[C@@H](O)[C@](C)(O)[C@H]1CC[C@@]2(O)C3=C[C@H](O)[C@@H]4C[C@@H](O)[C@@H](O)C[C@]4(C)[C@H]3CC[C@]12C [Compound 6a-hydroxy-20-hydroxyecdysone] | 10 | ~12 | > 33 | ~10 | > 33 | – | – | – | – | – | – | – | – |
| C[C@H](CO)CC[C@@H](O)[C@](C)(O)[C@H]1CC[C@@]2(O)C3=CC(=O)[C@@H]4C[C@@H](O)[C@@H](O)C[C@]4(C)[C@H]3CC[C@]12C [(25S)-inokosterone] | ~3.3 | ~4 | ~20 | ~1.5 | – | > 33 | – | – | – | – | – | – | – |
| CCC(CC(O)C(C)(O)C1CCC2(O)C3=CC(=O)C4CC(O)C(O)CC4(C)C3CCC12C)C(C)(C)O (stereo not drawn) [makisterone C] | ~2 | 1.02 | ~5 | ~0.1 | – | > 33 | – | – | – | – | – | – | – |
| CC(=O)O[C@H](CCC(C)(C)O)[C@](C)(O)[C@H]1CC[C@@]2(O)C3=CC(=O)[C@@H]4C[C@@H](O)[C@@H](O)C[C@]4(C)[C@H]3CC[C@]12C [Compound 20-hydroxyecdysone-22-acetate] | ~2 | ~2 | > 33 | 2.44 | – | > 33 | – | – | – | – | – | – | – |
| CC(=O)OCC(=O)O[C@H](CCC(C)(C)O)[C@](C)(O)[C@H]1CC[C@@]2(O)C3=CC(=O)[C@@H]4C[C@@H](O)[C@@H](O)C[C@]4(C)[C@H]3CC[C@]12C [20-hydroxyecdysone 22-acetoxyacetate] | ~3.3 | ~3.3 | ~20 | 0.755 | > 33 | – | – | – | – | – | – | – | – |
| C[C@H]([C@H](O)CCC(C)(C)O)[C@H]1CC[C@@]2(O)C3=CC(=O)[C@@H]4C[C@@H](O)[C@@H](O)C[C@]4(C)[C@H]3CC[C@]12C [ecdysone] | ~7 | – | > 33 | 3.27 | – | – | > 33 | ~15 | 3.43 | > 33 | 2.52 | > 33 | > 33 |
| CCC(=O)OC1CC2(C)C(C(C)(O)C(O)CCC(C)(C)O)CCC2(O)C2=CC(=O)C3CC(O)C(O)CC3(C)C21 (stereo not drawn) [turkesterone-11 a -propionate] | ~10 | – | > 33 | ~10 | – | – | – | ~15 | – | – | – | > 33 | – |
| C[C@@H](CO)CC[C@@H](O)[C@](C)(O)[C@H]1CC[C@@]2(O)C3=CC(=O)[C@@H]4C[C@@H](O)[C@@H](O)C[C@]4(C)[C@H]3CC[C@]12C [(25R)-inokosterone] | ~3.3 | ~2.5 | 9.46 | 0.867 | – | > 33 | – | – | – | – | – | – | – |
| CC(C)CC[C@@H](O)[C@](C)(O)[C@H]1CC[C@@]2(O)C3=CC(=O)[C@@H]4C[C@@H](O)[C@@H](O)C[C@]4(C)[C@H]3[C@H](O)C[C@]12C [ajugasterone C] | ~0.2 | – | ~2 | 0.08 | – | – | – | 0.07 | – | – | – | ~10 | – |
| CC(C(O)CCC(C)(C)O)C1CCC2(O)C3=CC(=O)C4CC(O)CCC4(C)C3CCC12C (stereo not drawn) [Compound 2-deoxyecdysone] | ~1 | ~10 | > 33 | ~6 | – | > 33 | – | – | – | – | – | – | – |
| CC1(C)OC(=O)C=C1CC(O)C(C)(O)C1CCC2(O)C3=CC(=O)C4CC(O)C(O)CC4(C)C3CCC12C (stereo not drawn) [carthamosterone] | ~20 | ~15 | > 33 | ~10 | – | > 33 | – | – | – | – | – | – | – |
